# Measurements published in patent US20240041899A1, “SOLID PREPARATION” (ASKA Pharmaceutical Co., Ltd., priority 2020, published 2024).
# Experiments:
# [1] = system: rats having the urination disorder associated with diabetes; experiment: Test Example 6: urination disorder model associated with streptozocin-induced diabetes, compound A versus compound C; format: in vivo; settings: STZ diabetes model
# Protocol: As described below, a model of a urination disorder associated with streptozocin-induced diabetes was prepared as a urination disorder model in accordance with Test Example 4 to evaluate the effects of the compound A and the compound C on a urination disorder. This model has no benign prostatic hyperplasia and is a model of a urination disorder associated with neuropathy and smooth muscle contraction disorder.
# The body weights of Rats (male, Crl:CD(SD), 5-week-old; Charles River Laboratories Japan, Inc.) were measured. On the basis of the body weight, the rats were grouped or divided into two (2) groups. The day after the rats were grouped, a first group received intraperitoneal administration of a citrate buffer (pH 4.5) (10 mL/kg) having a concentration of 0.1 mmol/L, and a second group received intraperitoneal administration of streptozocin (STZ; Sigma-Aldrich) (50 mg/kg). Streptozocin (STZ) was administered in the form of a solution of streptozocin having a concentration of 5 mg/mL in the citrate buffer.
# About one (1) week after streptozocin (STZ) was administered, the body weight and the fasting blood glucose were measured. In the streptozocin (STZ) administration group (the second group), individuals having a fasting blood glucose level of not less than 300 mg/dL were used as animals with induced diabetes. These animals with induced diabetes are a model having no abnormality of the prostate (having no benign prostatic hyperplasia). On the basis of the body weight and the fasting blood glucose level, the animals (models) with induced diabetes were grouped or divided into three (3) groups by randomized, multivariable block allocation.
# To the three model groups with induced diabetes, a 0.5 v/v % Polysorbate 80 solution (0.5% P) (10 mL/kg), the compound A (3 mg/kg), and the compound C (dutasteride) (0.3 mg/kg) were orally administered, respectively, wherein the administration schedule in all groups was a frequency of once a day, only on weekdays, over four (4) weeks. Moreover, to the above-mentioned first group, a 0.5 v/v % Polysorbate 80 solution (0.5% P) (10 mL/kg) was orally administered in the same administration schedule (normal group). On the last day of administration, a cannula was inserted into and secured to the dome of the bladder under isoflurane anesthesia, and cystometry (Cystometogram, CMG) was conducted in the order of under awake condition and under urethane anesthesia to measure the intravesical pressure, the voided volume, and the residual urine volume. After the completion of the measurement, the blood was collected under deep isoflurane anesthesia, and then the prostate (ventral prostate, dorsolateral prostate) was extracted and each was weighed. Moreover, the blood glucose level in the collected blood was measured.
# Normal group: citrate buffer 10 mL/kg (intraperitoneal administration), 0.5% P 10 mL/kg (oral administration) (n=10) • Solvent group (control group): STZ 50 mg/kg (intraperitoneal administration), 0.5% P 10 mL/kg (oral administration) (n=10) • Group A3: STZ 50 mg/kg (intraperitoneal administration), Compound A 3 mg/kg (oral administration) (n=10) • Group C0.3: STZ 50 mg/kg (intraperitoneal administration), Compound C (dutasteride) 0.3 mg/kg (oral administration) (n=10)
# Urination parameter: In the same manner as in Test Example 4, the residual urine volume (mL) and the urination efficiency (%) were determined as urination parameters in each urination, and the average value of two measurements was taken as a measured value of each individual.
# Prostate weight: In the same manner as in Test Example 4, the weight of the prostate (ventral prostate, dorsolateral prostate, and whole) was converted to a tissue weight per 100 g of the body weight. For Group A3, which received the compound A, and Group C0.3, which received the compound C, the inhibition rate of the weight of the prostate relative to the weight of the prostate in the solvent group was calculated (with one decimal place). […]
# [2] = system: lower urinary tract obstruction model of rats (male); experiment: Test Example 2: urination function in lower urinary tract obstruction model of male rats; format: in vivo; settings: oral once a day 14 days, 10 mg/kg, in comparison with Group C (dutasteride 0.5 mg/kg)
# Text: A lower urinary tract obstruction model of rats was used as a test system. A test substance was orally administered to the lower urinary tract obstruction model repeatedly over 14 days to examine the action on the urination function in the lower urinary tract obstruction model. The lower urinary tract obstruction model is not a benign prostatic hyperplasia model with enlarged prostate.
# More specifically, the rats (male, Crl:CD(SD), 8-week-old; Charles River Laboratories Japan, Inc.) were operated to form lower urinary tract obstruction and repeatedly received oral administration of the test substance at a frequency of once a day over 14 days. After the completion of the administration, each rat was subjected to bladder catheterization under anesthesia and cystometry under no anesthesia and was evaluated for the residual urine volume and the urination efficiency.
# The test substances and the dosage in the test system (male rats with lower urinary tract obstruction) are as follows. • Solvent group (control group): 0.5 v/v % Polysorbate 80 solution, 10 mL/kg (n=8) • Group A: Compound A, 10 mg/kg (n=12) • Group C: Compound C (dutasteride), 0.5 mg/kg (n=11)
# [3] = Compound A 3 mg/kg, in comparison with the solvent group (p<0.05)
# [4] = Compound A oral 3 mg/kg, 4 weeks
# [5] = Compound A oral 3 mg/kg, relative to solvent group
compound,measurement,setting,value
"CC(=O)O[C@]1(C(C)=O)C[C@@H](O)[C@H]2[C@@H]3C=C(Cl)C4=CC(=O)OC[C@]4(C)[C@H]3CC[C@@]21C [Compound A, 17α-acetoxy-6-chloro-15β-hydroxy-2-oxa-4,6-pregnadiene-3,20-dione]",therapeutic effect on diabetes,[1]; Compound A 3 mg/kg,no therapeutic effect
same,"weights of the ventral prostate, the dorsolateral prostate, and the whole prostate","[1]; Compound A 3 mg/kg, compared with the solvent group (P<0.05)",significant decrease
same,"residual urine volume, cystometry (CMG) under awake condition",[1]; [3],significantly decreased
same,"urination efficiency, cystometry (CMG) under awake condition",[1]; [3],significantly improved
same,bladder contraction force on urination by nomogram analysis,"[1]; Compound A 3 mg/kg, in comparison with the solvent group and Group C0.3",strong bladder contraction force
same,effect on the blood glucose level,"[1]; Compound A 3 mg/kg, vs solvent group",did not statistically affect
same,Blood glucose level,[1]; [4],972.4 ± 312.3 mg/dL
same,"Prostate weight, dorsolateral prostate",[1]; [4],38.8 ± 4.2 mg/100 g body weight
same,"Prostate weight, ventral prostate",[1]; [4],61.2 ± 12.4 mg/100 g body weight
same,"Prostate weight, whole",[1]; [4],99.9 ± 15.5 mg/100 g body weight
same,Dorsolateral prostate atrophy rate,[1]; [5],(40.2%)
same,Ventral prostate atrophy rate,[1]; [5],(40.0%)
same,Whole prostate atrophy rate,[1]; [5],(40.1%)
same,"urination function (the residual urine volume, the urination efficiency)",[2],strong improvement action
